What was measured:
[1] = test system: CYP3A89
From the text: FIG. 5A-51I. Development of an equine intestine-on-a-chip. FIG. 5A: Schematic representation of equine intestine-on-a-chip, including the top view of the Emulate chip (left), and a vertical slice (right) showing the epithelial channel (1, blue), the microvasculature channel (2, pink), and microchannels populated by organoid-derived intestinal epithelial cells (3) and endothelial cells (4), separated by flexible, porous membrane coated by extracellular matrices (5). FIG. 5B: Brightfield image of an equine intestine-chip cultured for 12 days in the presence of fluid flow and stretch (30 μl/h flow, 10% strain, 0.2 Hz). FIG. 5C: High magnification, phase contrast image of the intestinal epithelium channel depicted in b. […] FIG. 5E: Intestinal epithelium height measured in situ over a 400 μm section of the intestine-chip depicted in b. […] FIG. 5G: qPCR analysis of transcripts associated with intestine cell differentiation in organ-chips compared to 3D enteroid culture. (FIG. 5H: Testosterone conversion by epithelial CYP3A89 in equine intestine-chips was monitored by LC-MS/MS. Graph depicts the percent conversion of testosterone to 6-hydroxytestosterone at two concentrations. Scale bar represents 100 μm in panels 5B, 5C, 5D, and 5F. Schematic in 5A adapted and modified from Kasendra et al., eLife 2020.
Finally, studies were performed to evaluate the suitability of intestine chips for drug metabolism and CYP3A89 (CYP3A4 homolog (24)) induction. For these experiments, we inoculated testosterone into the inlet reservoir for the epithelial channel, flowed the testosterone-containing media through the chip at a rate of 30 μl/h, and collected samples from the effluent chambers from both the epithelial and vasculature channels.

[2] = test system: cellular esterase(s); assay: Ciclesonide pro-drug hydrolysis to des-CIC in equine airway (bronchioalveolar) organoid-derived transwells; format: in vitro ADME; conditions: 50 μM or 500 μM Ciclesonide, over time
From the text: (§1) FIG. 10A-10E. Identification and quantification of Ciclesonide metabolites produced by equine airway and hepatic organoid-derived tissue systems. FIG. 10A includes the structure of Ciclesonide, which is a pro-drug that is metabolized in the lungs to the active form, desisobutyryl-Ciclesonide (des-CIC). FIG. 10B includes MS spectra showing representative fragmentation pattern of kinetic des-CIC conversion from CIC hydrolysis generated by equine bronchioalveolar organoid-derived transwells treated with pro-drug. FIGS. 10C-10D plot quantification of des-CIC metabolite produced by equine airway organoid-derived transwells treated with 50 μM (FIG. 10C) or 500 μM (FIG. 10D) Ciclesonide as a function of time. FIG. 10E plots quantification of des-CIC metabolite produced by equine hepatic organoid-derived transwells treated with 500 μM Ciclesonide as a function of time. […]
FIG. 10B, includes representative fragmentation pattern of kinetic des-CIC conversion from CIC hydrolysis generated by equine bronchioalveolar organoid-derived transwells treated with pro-drug. […] Quantification of des-CIC metabolite produced by equine airway organoid-derived transwells treated with 50 μM (FIG. 10C) or 500 μM (FIG. 10D) Ciclesonide over time. […]

[3] = test system: cellular esterase(s); assay: Ciclesonide pro-drug hydrolysis to des-CIC in equine hepatic organoid-derived transwells; format: in vitro ADME; conditions: 500 μM Ciclesonide, over time
From the text: as §1
Apical samples were obtained from the transwell upper chamber containing the bronchioalveolar tissue; basolateral samples were obtained from the lower transwell chamber containing untreated medium. FIG. 10E includes the results of quantification of des-CIC metabolite produced by equine hepatic organoid-derived transwells treated with 500 μM Ciclesonide. […]

Compound	channel in which testosterone metabolites were detected [1]	time by which CYP3A89-mediated conversion of testosterone to 6-hydroxytestosterone was revealed ([1]; equine intestine-chip, flow 30 μl/h, effluent samples, post-treatment) [h]	time of peak testosterone metabolism ([1]; horse)	pro-drug hydrolysis to desisobutyryl-Ciclesonide (kinetics in words) [2]	pro-drug hydrolysis to desisobutyryl-Ciclesonide (kinetics in words) [3]
C[C@]12CC[C@H]3[C@@H](CCC4=CC(=O)CC[C@@]43C)[C@@H]1CC[C@@H]2O [testosterone]	detected only in the epithelial channel effluent	≤ 1	roughly 3 h	–	–
CC(C)C(=O)OCC(=O)[C@@]12O[C@H](C3CCCCC3)O[C@@H]1C[C@H]1[C@@H]3CCC4=CC(=O)C=C[C@]4(C)[C@H]3[C@@H](O)C[C@@]12C [Ciclesonide]	–	–	–	rapid and linear	rapid and linear

— patent US20220145265A1, “IN VITRO EQUINE MODEL SYSTEMS AND THEIR INTEGRATION INTO HORSE-ON-A-CHIP PLATFORM” (University of Kentucky Research Foundation, priority 2020, published 2022)
